Results reported in patent publication US4148896A, “Antidepressant combination” (E. I. Du Pont de Nemours and Company, priority 1978, dated 1979).
Like-named read-outs stand apart in the source and are kept apart here.

Experiments:
[1] = system: mice; conditions: for NUMBER OF MICE DEAD: N=10; for Effect of amantadine on molindone toxicity (mortality): mice, oral
[2] = system: tetrabenazine-induced sedation; assay: Mouse antidepressant (antitetrabenazine) test: prevention of tetrabenazine-induced ptosis and loss of exploratory activity; conditions: for ED50: Mus musculus, po; for No. of Mice Blocked, EXPLORATORY ACTIVITY / No. of Mice Blocked, PTOSIS: 1 h after amantadine
[3] = target: T1, mouse brain MAO (Mus musculus, UniProt Q64133); assay: biochemical
T1 sequence (Q64133 1-526): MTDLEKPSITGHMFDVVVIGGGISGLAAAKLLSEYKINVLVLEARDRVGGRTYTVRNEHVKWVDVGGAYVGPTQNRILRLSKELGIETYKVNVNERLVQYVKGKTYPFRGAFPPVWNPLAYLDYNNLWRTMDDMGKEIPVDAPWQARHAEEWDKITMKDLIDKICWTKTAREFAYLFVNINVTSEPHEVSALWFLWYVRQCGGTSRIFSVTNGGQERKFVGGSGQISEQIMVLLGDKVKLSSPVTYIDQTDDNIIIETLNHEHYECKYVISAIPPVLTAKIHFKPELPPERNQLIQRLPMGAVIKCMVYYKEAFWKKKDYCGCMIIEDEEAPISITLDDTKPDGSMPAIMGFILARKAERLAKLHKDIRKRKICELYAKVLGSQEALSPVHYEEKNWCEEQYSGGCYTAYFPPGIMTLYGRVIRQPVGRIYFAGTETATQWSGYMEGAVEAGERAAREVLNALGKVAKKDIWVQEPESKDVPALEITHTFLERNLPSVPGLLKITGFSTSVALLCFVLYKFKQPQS

[4] = target: T1, mouse brain MAO; conditions: substrate 5 HT
[5] = 1 mg/kg oral (free base), 1 h, N=10
[6] = 3 mg/kg oral (free base), 1 h, N=10
[7] = 9 mg/kg oral (free base), 1 h, N=10
[8] = 20 mg/kg oral (free base), 0.5 h, N=20
[9] = 20 mg/kg oral (free base), 1 h, N=20
[10] = 20 mg/kg oral (free base), 2 h, N=20
[11] = 20 mg/kg oral (free base), 4 h, N=20
[12] = 27 mg/kg oral (free base), 1 h, N=10
[13] = 81 mg/kg oral (free base), 1 h, N=10
[14] = amantadine 2 mg/kg oral alone, N=20
[15] = amantadine 6 mg/kg oral alone, N=20
[16] = amantadine 18 mg/kg oral alone, N=20
[17] = amantadine 54 mg/kg oral alone, N=20
[18] = amantadine alone, oral, 1 h, free base basis, N=20 (Table 2)

## NC12CC3CC(CC(C3)C1)C2 [Amantadine, 1-adamantanamine]
[1]; amantadine 267 mg/kg oral alone, 0.5 h
  NUMBER OF MICE DEAD: 0
[1]; amantadine 267 mg/kg oral alone, 1 h
  NUMBER OF MICE DEAD: 0
[1]; amantadine 267 mg/kg oral alone, 2 h
  NUMBER OF MICE DEAD: 0
[1]; amantadine 267 mg/kg oral alone, 4 h
  NUMBER OF MICE DEAD: 0
[1]; amantadine 267 mg/kg oral alone, 24 h
  NUMBER OF MICE DEAD: 0
[1]; amantadine 267 mg/kg oral alone, 336 h
  NUMBER OF MICE DEAD: 0
[1]; amantadine 400 mg/kg oral alone, 0.5 h
  NUMBER OF MICE DEAD: 1
[1]; amantadine 400 mg/kg oral alone, 1 h
  NUMBER OF MICE DEAD: 1
[1]; amantadine 400 mg/kg oral alone, 2 h
  NUMBER OF MICE DEAD: 1
[1]; amantadine 400 mg/kg oral alone, 4 h
  NUMBER OF MICE DEAD: 1
[1]; amantadine 400 mg/kg oral alone, 24 h
  NUMBER OF MICE DEAD: 1
[1]; amantadine 400 mg/kg oral alone, 336 h
  NUMBER OF MICE DEAD: 1
[1]; amantadine 600 mg/kg oral alone, 0.5 h
  NUMBER OF MICE DEAD: 4
[1]; amantadine 600 mg/kg oral alone, 1 h
  NUMBER OF MICE DEAD: 4
[1]; amantadine 600 mg/kg oral alone, 2 h
  NUMBER OF MICE DEAD: 4
[1]; amantadine 600 mg/kg oral alone, 4 h
  NUMBER OF MICE DEAD: 4
[1]; amantadine 600 mg/kg oral alone, 24 h
  NUMBER OF MICE DEAD: 5
[1]; amantadine 600 mg/kg oral alone, 336 h
  NUMBER OF MICE DEAD: 5
[1]; amantadine 900 mg/kg oral alone, 0.5 h
  NUMBER OF MICE DEAD: 8
[1]; amantadine 900 mg/kg oral alone, 1 h
  NUMBER OF MICE DEAD: 8
[1]; amantadine 900 mg/kg oral alone, 2 h
  NUMBER OF MICE DEAD: 8
[1]; amantadine 900 mg/kg oral alone, 4 h
  NUMBER OF MICE DEAD: 8
[1]; amantadine 900 mg/kg oral alone, 24 h
  NUMBER OF MICE DEAD: 8
[1]; amantadine 900 mg/kg oral alone, 336 h
  NUMBER OF MICE DEAD: 8
[1]; amantadine 1350 mg/kg oral alone, 0.5 h
  NUMBER OF MICE DEAD: 10
[1]; amantadine 1350 mg/kg oral alone, 1 h
  NUMBER OF MICE DEAD: 10
[1]; amantadine 1350 mg/kg oral alone, 2 h
  NUMBER OF MICE DEAD: 10
[1]; amantadine 1350 mg/kg oral alone, 4 h
  NUMBER OF MICE DEAD: 10
[1]; amantadine 1350 mg/kg oral alone, 24 h
  NUMBER OF MICE DEAD: 10
[1]; amantadine 1350 mg/kg oral alone, 336 h
  NUMBER OF MICE DEAD: 10
[1]
  Effect of amantadine on molindone toxicity (mortality): decreases the toxicity of molindone
[1]; listed as amantadine hydrochloride
  Effect of amantadine on molindone toxicity (mortality): reduces molindone hydrochloride lethal toxicity
[2]; [5]
  NUMBER OF MICE BLOCKED, EXPLORATORY ACTIVITY: 0
  NUMBER OF MICE BLOCKED, PTOSIS: 1
[2]; [6]
  NUMBER OF MICE BLOCKED, EXPLORATORY ACTIVITY: 0
  NUMBER OF MICE BLOCKED, PTOSIS: 1
[2]; [7]
  NUMBER OF MICE BLOCKED, EXPLORATORY ACTIVITY: 4
  NUMBER OF MICE BLOCKED, PTOSIS: 5
[2]; [8]
  NUMBER OF MICE BLOCKED, EXPLORATORY ACTIVITY: 1
  NUMBER OF MICE BLOCKED, PTOSIS: 4
[2]; [9]
  NUMBER OF MICE BLOCKED, EXPLORATORY ACTIVITY: 8
  NUMBER OF MICE BLOCKED, PTOSIS: 13
[2]; [10]
  NUMBER OF MICE BLOCKED, EXPLORATORY ACTIVITY: 6
  NUMBER OF MICE BLOCKED, PTOSIS: 11
[2]; [11]
  NUMBER OF MICE BLOCKED, EXPLORATORY ACTIVITY: 0
  NUMBER OF MICE BLOCKED, PTOSIS: 2
[2]; [12]
  NUMBER OF MICE BLOCKED, EXPLORATORY ACTIVITY: 4
  NUMBER OF MICE BLOCKED, PTOSIS: 7
[2]; [13]
  NUMBER OF MICE BLOCKED, EXPLORATORY ACTIVITY: 8
  NUMBER OF MICE BLOCKED, PTOSIS: 10
[2]; 1 h, read-out: ED50, E[…], oral, free base basis, 1 h after drug (Table 1)
  ED50: 24 mg/kg
[2]; 1 h, read-out: ED50, PTOSIS, oral, free base basis, 1 h after drug (Table 1)
  ED50: 9.6 mg/kg
[2]; [14]
  No. of Mice Blocked, EXPLORATORY ACTIVITY: 0
  No. of Mice Blocked, PTOSIS: 2
[2]; [15]
  No. of Mice Blocked, EXPLORATORY ACTIVITY: 2
  No. of Mice Blocked, PTOSIS: 4
[2]; [16]
  No. of Mice Blocked, EXPLORATORY ACTIVITY: 12
  No. of Mice Blocked, PTOSIS: 17
[2]; [17]
  No. of Mice Blocked, EXPLORATORY ACTIVITY: 16
  No. of Mice Blocked, PTOSIS: 19
[2]; [18]
  ED50, EXPLORATORY ACTIVITY, Amantadine: 16.6 mg/kg
  ED50, PTOSIS, Amantadine: 9.4 mg/kg
[2]; oral, free base basis, 1 h after drug (Table 1), 60 min
  ED50, PTOSIS: 9.4 mg/kg

## NNCCc1ccccc1 [PHENELZINE . SO4]
[3]
  IC50: 4 µM
[4]; final conc. 10^-4 m/l
  % INHIBITION: 88%
[4]; final conc. 10^-5 m/l
  % INHIBITION: 81%
[4]; final conc. 10^-6 m/l
  % INHIBITION: 3%
